In patent publication US8349883B2, “Hydroxamate-based inhibitors of deacetylases B” (Novartis AG, priority 2008, dated 2013):

Experiments:
[1] = target: T1, HDAC-1 (Homo sapiens, UniProt Q13547); assay: HDAC inhibition assay (purified GST-HDAC protein); type: biochemical
T1 construct: made in house; host or cells: Sf9 or Sf21 insect cells (baculovirus, donor vector pFB-GSTX3)
Excerpt: The baculovirus donor vector pFB-GSTX3 was used to generate a recombinant baculovirus that can express the HDAC polypeptide. Transfer vectors containing the HDAC coding region were transfected into the DH10Bac cell line (GIBCO) and plated on selective agar plates. Colonies without insertion of the fusion sequence into the viral genome (carried by the bacteria) were blue. Single, white colonies were picked and viral DNAs (bacmid) were isolated from the bacteria by standard plasmid purification procedures. Sf9 cells or Sf21 (American Type Culture Collection) cells were then transfected in […] flasks with the viral DNA using Cellfectin reagent.
Virus-containing media was collected from the transfected cell culture and used for infection to increase its titer. Virus-containing media obtained after two rounds of infection was used for large-scale protein expression. For large-scale protein expression 100 cm^2 round tissue culture plates were seeded with 5×10^7 cells/plate and infected with 1 mL of virus-containing media (at an approximately MOI of 5). After 3 days, the cells were scraped off the plate and centrifuged at 500 rpm for 5 minutes. Cell pellets from 10-20, 100 cm^2 plates, were re-suspended in 50 mL of ice-cold lysis buffer (25 mM tris-HCl, pH 7.5, 2 mM EDTA, 1% NP-40, 1 mM DTT, 1 mM P MSF). The cells were stirred on ice for 15 minutes and then centrifuged at 5,000 rpms for 20 minutes.
The centrifuged cell lysate was loaded onto a 2 mL glutathione-sepharose column (Pharmacia) and was washed thrice with 10 mL of 25 mM tris-HCl, pH 7.5, 2 mM EDTA, 1 mM DTT, 200 mM NaCl. The GST-tagged proteins were then eluted by 10 applications (1 mL each) of 25 mM tris-HCl, pH 7.5, 10 mM reduced-glutathione, 100 mM NaCl, 1 mM DTT, 10% glycerol and stored at −70° C.
HDAC assays with purified GST-HDAC protein were carried out in a final volume of 30 μL containing 15 ng of GST-HDAC protein, 20 mM tris-HCl, pH 7.5, 1 mM MnCl2, 10 mM MgCl2, 1 mM DTT, 3 μg/mL poly(Glu,Tyr) 4:1, 1% DMSO, 2.0 μM ATP (γ-[^33P]-ATP 0.1 μCi). The activity was assayed in the presence or absence of inhibitors. The assay was carried out in 96-well plates at ambient temperature for 15 minutes under conditions described below and terminated by the addition of 20 μL of 125 mM EDTA. Subsequently, 40 μL of the reaction mixture were transferred onto EMMOBILON-PVDF membrane (Millipore) previously soaked for 5 minutes with methanol, rinsed with water, then soaked for 5 minutes with 0.5% H3PO4 and mounted on vacuum manifold with disconnected vacuum source. After spotting all samples, a vacuum was connected and each well rinsed with 200 μL 0.5% H3PO4. Membranes were removed and washed four times on a shaker with 1.0% H3PO4, once with ethanol. Membranes were counted after drying at ambient temperature, mounting in Packard TopCount 96-well frame, and addition of 10 μL/well of MICROSCINT™ (Packard). IC50 values were calculated by linear regression analysis of the percentage inhibition of each compound in duplicate, at 4 concentrations (usually 0.01, 0.1, 1 and 10 μM).
• Input: 3×4 μL stopped assay on IMMOBILON membrane, not washed • Background (3 wells): assay with H2O instead of enzyme • Positive control (4 wells): 3% DMSO instead of compound • Bath control (1 well): no reaction mix
IC50 values were calculated by logarithmic regression analysis of the percentage inhibition of each compound at 4 concentrations (usually 3- or 10-fold dilution series starting at 10 μM). In each experiment, the actual inhibition by reference compound was used for normalization of IC50 values to the basis of an average value of the reference inhibitor: Normalized IC50=measured IC50 average ref IC50/measured ref IC50
Example: Reference inhibitor in experiment 0.4 μM, average 0.3 μM, Test compound in experiment 1.0 μM, normalization: 0.3/0.4=0.75 μM
For example, known HDAC inhibitors or a synthetic derivative thereof may be used as reference compounds.

[2] = test system: HCT116; assay: HCT116 IC50; type: cell-based; conditions: Homo sapiens, HCT-116

T1 sequence (Q13547 whole entry, species assumed): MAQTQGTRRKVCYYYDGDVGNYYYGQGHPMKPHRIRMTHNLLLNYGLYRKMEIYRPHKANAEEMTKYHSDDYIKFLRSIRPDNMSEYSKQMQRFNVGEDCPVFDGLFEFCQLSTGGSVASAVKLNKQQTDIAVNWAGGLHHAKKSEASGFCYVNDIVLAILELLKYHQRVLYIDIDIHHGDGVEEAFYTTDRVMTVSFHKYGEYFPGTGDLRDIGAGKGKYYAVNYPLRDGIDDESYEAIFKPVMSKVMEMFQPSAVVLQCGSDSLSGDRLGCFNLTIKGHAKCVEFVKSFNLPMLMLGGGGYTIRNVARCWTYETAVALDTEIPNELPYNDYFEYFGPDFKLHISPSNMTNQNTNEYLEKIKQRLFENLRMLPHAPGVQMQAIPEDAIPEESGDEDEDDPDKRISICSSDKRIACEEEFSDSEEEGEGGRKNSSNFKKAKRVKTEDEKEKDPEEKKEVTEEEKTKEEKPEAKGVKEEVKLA

Compound	IC50 [1] [nM]	IC50 [2] [nM]
O=C(/C=C/c1ccc([C@@H]2CCCN2CCn2cc(Br)cn2)cc1)NO [Compound 65, (E)-3-(4-{(S)-1-[2-(4-Bromo-pyrazol-1-yl)-ethyl]-pyrrolidin-2-yl}-phenyl)-N-hydroxy-acrylamide]	35	180
Cc1cc2ccccc2n1CCN1CCCC1c1ccc(/C=C/C(=O)NO)cc1 (stereo not drawn) [Compound 4, (E)-N-Hydroxy-3-(4-{1-[2-(2-methyl-indol-1-yl)-ethyl]-pyrrolidin-2-yl}-phenyl)-acrylamide]	10	10
O=C(/C=C/c1ccc([C@@H]2CCCN2CCc2nnn(C3CCC3)n2)cc1)NO [Compound 105, (E)-3-(4-{(S)-1-[2-(2-Cyclobutyl-2H-tetrazol-5-yl)-ethyl]-pyrrolidin-2-yl}-phenyl)-N-hydroxy-acrylamide]	120	160
O=C(/C=C/c1ccc([C@@H]2CCCN2CCc2nnn(-c3ccc([N+](=O)[O-])cc3)n2)cc1)NO [Compound 106, (E)-N-Hydroxy-3-[4-((S)-1-{2-[2-(4-nitro-phenyl)-2H-tetrazol-5-yl]-ethyl}-pyrrolidin-2-yl)-phenyl]-acrylamide]	67	180
Cc1nn(C)c(C)c1CCN1CCC[C@H]1c1ccc(CCC(=O)NO)cc1 [Compound 112, N-Hydroxy-3-(4-{(S)-1-[2-(1,3,5-trimethyl-1H-pyrazol-4-yl)-ethyl]-pyrrolidin-2-yl}-phenyl)-propionamide]	10	30
CC(C)(O)c1nn2ccccc2c1CCN1CCC[C@@H]1c1ccc(CCC(=O)NO)cc1 [Compound 120, N-Hydroxy-3-[4-((R)-1-{2-[2-(1-hydroxy-1-methyl-ethyl)-pyrazolo[1,5-a]pyridin-3-yl]-ethyl}-pyrrolidin-2-yl)-phenyl]-propionamide]	75	510
O=C(/C=C/c1ccc([C@@H]2CCCN2CCC2CCCCC2)cc1)NO [Compound 41, (E)-3-{4-[(S)-1-(2-Cyclohexyl-ethyl)-pyrrolidin-2-yl]-phenyl}-N-hydroxy-acrylamide]	7	48
O=C(/C=C/c1ccc([C@@H]2CCCN2CCc2ccc(Cl)cc2)cc1)NO [Compound 22, (E)-3-(4-{(S)-1-[2-(4-Chloro-phenyl)-ethyl]-pyrrolidin-2-yl}-phenyl)-N-hydroxy-acrylamide]	7	13
O=C(/C=C/c1ccc(C2CCCN2CC(O)c2ccc(Cl)cc2)cc1)NO (stereo not drawn) [Compound 31, (E)-3-(4-{1-[2-(4-Chloro-phenyl)-2-hydroxy-ethyl]-pyrrolidin-2-yl}-phenyl)-N-hydroxy-acrylamide]	5	67
O=C(/C=C/c1ccc(C2CCCN2CCc2ccccc2F)cc1)NO (stereo not drawn) [Compound 27, (E)-3-(4-{1-[2-(2-Fluoro-phenyl)-ethyl]-pyrrolidin-2-yl}-phenyl)-N-hydroxy-acrylamide]	6	11
Cc1c(CCN2CCC[C@H]2c2ccc(/C=C/C(=O)NO)cc2)c(=O)n(-c2ccccc2)n1C [Compound 116, (E)-3-(4-{(S)-1-[2-(1,5-Dimethyl-3-oxo-2-phenyl-2,3-dihydro-1H-pyrazol-4-yl)-ethyl]-pyrrolidin-2-yl}-phenyl)-N-hydroxy-acrylamide]	20	49
O=C(/C=C/c1ccc(C2CCCN2CCc2ccc(Cl)cc2Cl)cc1)NO (stereo not drawn) [Compound 26, (E)-3-(4-{1-[2-(2,4-Dichloro-phenyl)-ethyl]-pyrrolidin-2-yl}-phenyl)-N-hydroxy-acrylamide]	7	29
Nc1ccc(-n2cc(CCN3CCC[C@H]3c3ccc(/C=C/C(=O)NO)cc3)nn2)cc1 [Compound 79, (E)-3-[4-((S)-1-{2-[1-(4-Amino-phenyl)-1H-[1,2,3]triazol-4-yl]-ethyl}-pyrrolidin-2-yl)-phenyl]-N-hydroxy-acrylamide]	6	43
COc1ccc(C(O)CN2CCCC2c2ccc(/C=C/C(=O)NO)cc2)cc1 (stereo not drawn) [Compound 30, (E)-N-Hydroxy-3-(4-{1-[2-hydroxy-2-(4-methoxy-phenyl)-ethyl]-pyrrolidin-2-yl}-phenyl)-acrylamide]	14	46
O=C(/C=C/c1ccc([C@@H]2CCCN2CCc2cn(CCOCc3ccccc3)nn2)cc1)NO [Compound 76, (E)-3-[4-((S)-1-{2-[1-(2-Benzyloxy-ethyl)-1H-[1,2,3]triazol-4-yl]-ethyl}-pyrrolidin-2-yl)-phenyl]N-hydroxy-acrylamide]	31	210
CC(C)n1nnnc1CCN1CCC[C@H]1c1ccc(CCC(=O)NO)cc1 [Compound 115, N-Hydroxy-3-(4-{(S)-1-[2-(1-isopropyl-1H-tetrazol-5-yl)-ethyl]-pyrrolidin-2-yl}-phenyl)-propionamide]	25	32
O=C(/C=C/c1ccc([C@@H]2CCCN2CCc2cn[nH]c2)cc1)NO [Compound 58, (E)-N-Hydroxy-3-(4-{(S)-1-[2-(1H-pyrazol-4-yl)-ethyl]-pyrrolidin-2-yl}-phenyl)-acrylamide]	7	36

The remaining lines, values ahead:

IC50 [1] [nM]	IC50 [2] [nM]	Compound
2	3	CC(C)(O)c1nn2ccccc2c1CCN1CCC[C@H]1c1ccc(/C=C/C(=O)NO)cc1 [Compound 48, (E)-N-Hydroxy-3-[4-((S)-1-{2-[2-(1-hydroxy-1-methyl-ethyl)-pyrazolo[1,5-a]pyridin-3-yl]-ethyl}-pyrrolidin-2-yl)-phenyl]-acrylamide]
3	2	CC(C)(C)c1[nH]c2cc(NS(C)(=O)=O)ccc2c1CCN1CCCC1c1ccc(/C=C/C(=O)NO)cc1 (stereo not drawn) [Compound 10, (E)-3-(4-{1-[2-(2-tert-Butyl-6-methanesulfonylamino-1H-indol-3-yl)-ethyl]-pyrrolidin-2-yl}-phenyl)-N-hydroxy-acrylamide]
5	39	O=C(/C=C/c1ccc(C2CCCN2CCCc2ccccc2)cc1)NO (stereo not drawn) [Compound 33, (E)-N-Hydroxy-3-{4-[1-(3-phenyl-propyl)-pyrrolidin-2-yl]-phenyl}-acrylamide]
4	9	O=C(/C=C/c1ccc([C@@H]2CCCCN2CCc2cnn3ccccc23)cc1)NO [Compound 85, (E)-N-Hydroxy-3-{4-[(S)-1-(2-pyrazolo[1,5-a]pyridin-3-yl-ethyl)-piperidin-2-yl]-phenyl}-acrylamide]
1.7	1.7	CCCCn1nc(C)c(CCN2CCC[C@H]2c2ccc(/C=C/C(=O)NO)cc2)c1C [Compound 97, (E)-3-(4-{(S)-1-[2-(1-Butyl-3,5-dimethyl-1H-pyrazol-4-yl)-ethyl]-pyrrolidin-2-yl}-phenyl)-N-hydroxy-acrylamide]
0.8	1.4	CCc1n[nH]c(CC)c1CCN1CCC[C@H]1c1ccc(/C=C/C(=O)NO)cc1 [Compound 99, (E)-3-(4-{(S)-1-[2-(3,5-Diethyl-1H-pyrazol-4-yl)-ethyl]-pyrrolidin-2-yl}-phenyl)-N-hydroxy-acrylamide]
1.2	4	O=C(/C=C/c1ccc([C@@H]2CCCN2CCc2c[nH]c3ncccc23)cc1)NO [Compound 51, (E)-N-Hydroxy-3-(4-{(S)-1-[2-(1H-pyrrolo[2,3-b]pyridin-3-yl)-ethyl]-pyrrolidin-2-yl}-phenyl)-acrylamide]
